Experimental data: patent US11739385B2, “Discovery of a somatic mutation in MYD88 gene in lymphoplasmacytic lymphoma” (Dana-Farber Cancer Institute, Inc., priority 2011, dated 2023)
Where two headings read alike, the source gives them in different places.

What was measured:
[1] = test system: NF-κB signaling; assay: NF-κB signaling in BCWM.1 and MWCL-1 WM cells; type: cell-based; details: BCWM.1 and MWCL-1 WM cells which possess the MYD88 L265P mutation
[2] = test system: NF-κB signaling; details: L265P expressing ABC DLBCL cell lines; cited from earlier work
[3] = test system: MYD88 L265P expressing WM cells; assay: Apoptosis analysis by Annexin V and PI staining; type: cell-based; details: BCWM.1 and MWCL-1 WM cells which possess the MYD88 L265P mutation
Protocol: Western blot analysis was performed using total and phospho-specific antibodies in MYD88 L265P expressing WM cells, BCWM.1 and MCWL-1 following MYD88 knockdown by lentiviral transduction, and/or use of MYD88 or IRAK signal inhibitors. […] Annexin V/PI staining was used to assess cell survival, and synergism assessed with CalcuSyn software.

**Q.** Which NF-κB signaling [1] does the source give for O=C(Nc1nc2ccccc2n1CCN1CCOCC1)c1cccc([N+](=O)[O-])c1 [IRAK1/4 inhibitor, N-(2-Morpholinylethyl)-2-(3-nitrobenzoylamido)-benzimidazole] here?
**A.** The NF-κB signaling was “loss of NF-κB signaling”.

**Q.** And the NF-κB signaling [2]?
**A.** The NF-κB signaling was “loss of NF-κB signaling”.

**Q.** What about the apoptosis [3] of the same compound?
**A.** The apoptosis was “enhanced apoptosis”.
